# Measurements from publication PMC7007424 (Neurotherapeutics, 2019).
# “Also recorded” adds a separate entry of the source. Where two headings read alike, the source gives them in different places. Marks after values point to notes of the source that are not given here.
# Columns and labels:
# [1] = system: PTZ-induced clonic seizures in mice; assay: s.c. PTZ-induced clonic seizure test, with isobolographic analysis; format: in vivo
# Method: Following PTZ administration, mice were placed separately in transparent Plexiglas cages (25 cm × 15 cm × 10 cm) and observed for 30 min for the occurrence of clonic seizures. Clonic seizure activity was defined as the clonus of the whole body lasting for over 3 s, with an accompanying loss of righting reflex.
# To determine the ED50 mix value, both drugs in the mixture (at proportionally raised doses) were administered to the mice and a dose–response relationship for the mixture was denoted using Litchfield and Wilcoxon [25]’s log-probit method. • Statistical comparison of the experimentally derived ED50 mix values with their corresponding theoretically additive ED50 add values was undertaken using the unpaired Student’s t test, according to Tallarida [30]. • Graphical illustration of the examined interactions as isobolograms (i.e., simple forms of interaction visualizations).
# [2] = system: 6-Hz-induced seizures (44 mA); assay: 6-Hz (44 mA) seizure model; format: in vivo; conditions: Mus musculus, ip; mice, i.p., 30 min before the test; 95% confidence intervals in parentheses
# [3] = system: PTZ-induced kindling in mice; assay: PTZ-induced kindling; format: in vivo; conditions: 33 daily i.p. injections; AS-1 15, 30 and 60 mg/kg, VPA 150 mg/kg; PTZ 40 mg/kg i.p. every 48 h, 17 injections; vs PTZ-kindled control
# Method: All suspensions and solutions were prepared freshly and administered in a constant volume of 0.1 ml per 10 g of body weight. In all experiments, AS-1 and VPA were injected i.p. Control animals received vehicles only. […] After each PTZ injection, mice were placed separately into transparent cages for 30 min for behavioral observation to assign an appropriate seizure score. […] After each PTZ injection, the mean seizure severity score for each experimental group was calculated. Non-kindled (control) mice were treated as kindled animals, except that they were injected with normal saline instead of PTZ. Experimental grouping for PTZ kindling was as follows: […]
# [4] = system: PTZ-kindled mice; assay: locomotor activity test in PTZ-kindled mice; format: in vivo; conditions: repeated i.p. injection, AS-1 15–60 mg/kg, VPA 150 mg/kg, day 34
# Method: Twenty-four hours after the last PTZ injection (on day 34), mice were subjected to the locomotor activity test, the elevated plus maze test, and the forced swim test. Forty-eight hours after the last PTZ injection (on day 35) the i.v. PTZ seizure threshold test was performed. Spontaneous locomotor activity of mice was monitored using the […] system supported by SedaCom32 software (Panlab/Harvard Apparatus, Barcelona, Spain) according to the method described in detail elsewhere.
# [5] = system: PTZ-kindled mice; assay: elevated plus maze test in PTZ-kindled mice; format: in vivo; conditions: repeated i.p. injection, AS-1 15–60 mg/kg, VPA 150 mg/kg
# Method: (§1) Twenty-four hours after the last PTZ injection (on day 34), mice were subjected to the locomotor activity test, the elevated plus maze test, and the forced swim test. Forty-eight hours after the last PTZ injection (on day 35) the i.v. PTZ seizure threshold test was performed. The elevated plus maze test was used to assess the anxiety-like behavior in kindled animal, as described in detail in our previous study.
# [6] = system: kindled mice; assay: i.v. PTZ seizure threshold test in kindled mice; format: in vivo
# [7] = system: naïve mice; assay: i.v. PTZ seizure threshold test in naïve mice; format: in vivo; conditions: acute
# Method: All suspensions and solutions were prepared freshly and administered in a constant volume of 0.1 ml per 10 g of body weight. […] The timed i.v. PTZ test was used to evaluate the changes in seizure threshold in both naïve and kindled mice. The experimental procedure has been described in detail in our earlier studies.
# [8] = system: mice; assay: passive avoidance task; format: in vivo; conditions: i.p. 30 min before, AS-1 81.12 mg/kg, VPA […], combination AS-1 27.6 + VPA 59.9 mg/kg
# [9] = system: mice; assay: grip strength test; format: in vivo; conditions: i.p. 30 min before, AS-1 81.12 mg/kg, VPA […], combination AS-1 27.6 + VPA 59.9 mg/kg
# From the text: The time before the commencement of the grip strength test (after drug administration) was identical to that of the PTZ test. This experimental procedure has been described in detail in our earlier studies.
# [10] = system: mice; assay: chimney test; format: in vivo; conditions: i.p. 30 min before, AS-1 81.12 mg/kg, VPA […], combination AS-1 27.6 + VPA 59.9 mg/kg
# From the text: [31]’s chimney test. The pretreatment time for AS-1 and VPA in the chimney test was identical to that of the PTZ test. This experimental procedure has been described in detail in our earlier studies.
# [11] = system: L-type Ca^2+ (diltiazem site, antagonist radioligand); assay: L-type Ca2+ channel (diltiazem site) binding; conditions: 100 μM; rat cerebral cortex
# [12] = system: GABA transporter (antagonist radioligand); assay: GABA transporter binding; conditions: 100 μM; rat cerebral cortex
# [13] = target: T1, TRPV1 (VR1) (h) (Homo sapiens, UniProt Q8NER1); assay: TRPV1 functional assay (antagonist effect); format: cell-based; conditions: human recombinant (CHO cells), read-out: % inhibition of control agonist/antagonist response (antagonist effect)
# T1 construct: Cerep Laboratories (contract testing)
# [14] = target: T2, CB1 (h) (Homo sapiens, UniProt P21554); assay: CB1 functional assay (agonist and antagonist effect); format: cell-based; conditions: human recombinant (CHO cells), read-out: % inhibition of control agonist/antagonist response (antagonist effect)
# T2 construct: Cerep Laboratories (contract testing)
# [15] = system: fast voltage-gated sodium channels; assay: patch clamp of sodium currents in prefrontal cortex pyramidal neurons; format: cell-based, rats; conditions: 100 μM, holding potential − 65 mV, n = 6, p > 0.05
# [16] = parallel artificial membrane permeability assay (PAMPA); format: in vitro ADME; conditions: ± SD, read-out: Pe, permeability coefficient
# [17] = metabolic stability on human liver microsomes (HLMs); format: in vitro ADME; conditions: 120 min incubation with HLMs
# [18] = system: hepatoma HepG2 cells; assay: hepatotoxicity, HepG2 cell viability; format: cell-based
# [19] = system: 6-Hz (32 mA) psychomotor seizures; conditions: mice, i.p., cited from earlier work; for ED50 (6 Hz, 32 mA): ref [10], [12]; for anticonvulsant activity in 6 Hz, 32 mA: known AED profile, Fig. 1
# [20] = target: CYP3A4 (Homo sapiens, UniProt P08684)
# [21] = target: CYP2D6 (Homo sapiens, UniProt P10635)
# [22] = target: CYP2C9 (Homo sapiens, UniProt P11712); conditions: 10 μM
# [23] = system: Na^+ channel (site 2); design: method as in Rapacz et al. [12]; conditions: rat cerebral cortex, ref Rapacz et al. [12], cited from earlier work
# [24] = system: L-type Ca^2+ (verapamil site, antagonist radioligand); design: method as in Rapacz et al. [12]; conditions: rat cerebral cortex, ref Rapacz et al. [12], cited from earlier work
# [25] = system: N-type Ca^2+ (antagonist radioligand); design: method as in Rapacz et al. [12]; conditions: 100 μM; rat cerebral cortex; ref Rapacz et al. [12]; cited from earlier work
# [26] = system: NMDA (antagonist radioligand); design: method as in Rapacz et al. [12]; conditions: rat cerebral cortex, ref Rapacz et al. [12], cited from earlier work
# [27] = system: hepatoma HepG2 cells; conditions: 24 h incubation, only at the highest used dose of 100 μM; ref [12]; cited from earlier work
# [28] = target: hERG potassium channel (Homo sapiens, UniProt Q12809); assay: in vitro
# [29] = system: zebrafish larvae; assay: EEG discharge assessment in zebrafish larvae exposed to PTZ; conditions: 5 mM, 20 h incubation, then 20 mM PTZ for 5 min; vs vehicle-incubated control
# [30] = system: PTZ-induced clonic seizures in mice; conditions: i.p., cited from earlier work
# [31] = system: PTZ-kindled mice; design: method as in PMID 30247871; conditions: former study, ref [13]; cited from earlier work
# [32] = system: maximal electroshock (MES) seizure; conditions: mice, i.p.; known AED profile, Fig. 1; cited from earlier work
# [33] = system: 6-Hz seizures; design: method as in PMID 28449218; conditions: 6-Hz test; ref [17]; cited from earlier work
# [34] = system: PTZ-kindled mice; assay: forced swim test in PTZ-kindled mice; format: in vivo; conditions: repeated i.p. injection, AS-1 15–60 mg/kg, VPA 150 mg/kg, vs kindled control
# Method: as §1, with “The forced swim” for “The elevated plus maze”, “the depressive-like” for “the anxiety-like”, “kindled animals. The procedure was performed” for “kindled animal,”, “detail elsewhere.” for “detail in our previous study.”
# [35] = repeated i.p. pretreatment 15–60 mg/kg
# [36] = 15 mg/kg i.p., 30 min before the test
# [37] = 30 mg/kg and 60 mg/kg i.p. (p < 0.01 and p < 0.001)
# Sequence of CYP2D6 (P10635 whole entry): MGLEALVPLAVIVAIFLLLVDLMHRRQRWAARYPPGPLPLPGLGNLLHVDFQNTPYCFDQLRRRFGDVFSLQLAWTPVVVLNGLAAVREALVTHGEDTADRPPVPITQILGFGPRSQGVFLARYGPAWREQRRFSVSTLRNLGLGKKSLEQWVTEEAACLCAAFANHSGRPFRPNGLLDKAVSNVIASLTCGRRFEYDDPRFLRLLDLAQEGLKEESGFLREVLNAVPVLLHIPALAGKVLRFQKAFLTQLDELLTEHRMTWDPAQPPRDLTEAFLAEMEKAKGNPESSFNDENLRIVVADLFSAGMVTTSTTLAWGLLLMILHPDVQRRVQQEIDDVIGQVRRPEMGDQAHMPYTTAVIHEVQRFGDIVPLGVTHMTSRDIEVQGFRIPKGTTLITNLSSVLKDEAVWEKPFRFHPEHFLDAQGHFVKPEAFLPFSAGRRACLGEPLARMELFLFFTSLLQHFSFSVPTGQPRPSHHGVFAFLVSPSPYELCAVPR
# Sequence of CYP3A4 (P08684 whole entry): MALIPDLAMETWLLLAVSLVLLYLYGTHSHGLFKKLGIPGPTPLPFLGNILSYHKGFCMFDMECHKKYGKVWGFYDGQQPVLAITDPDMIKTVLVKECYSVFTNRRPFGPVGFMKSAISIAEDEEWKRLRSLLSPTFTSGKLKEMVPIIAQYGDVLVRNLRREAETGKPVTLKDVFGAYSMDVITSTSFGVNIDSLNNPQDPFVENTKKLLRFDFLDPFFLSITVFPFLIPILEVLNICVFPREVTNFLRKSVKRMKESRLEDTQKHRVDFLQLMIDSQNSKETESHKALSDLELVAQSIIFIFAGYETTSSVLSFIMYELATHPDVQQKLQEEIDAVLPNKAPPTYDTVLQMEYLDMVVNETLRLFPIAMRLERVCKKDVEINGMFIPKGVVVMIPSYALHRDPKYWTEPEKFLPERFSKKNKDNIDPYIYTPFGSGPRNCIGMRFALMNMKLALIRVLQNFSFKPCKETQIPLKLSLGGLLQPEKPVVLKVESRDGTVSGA
# T2 sequence (P21554 whole entry): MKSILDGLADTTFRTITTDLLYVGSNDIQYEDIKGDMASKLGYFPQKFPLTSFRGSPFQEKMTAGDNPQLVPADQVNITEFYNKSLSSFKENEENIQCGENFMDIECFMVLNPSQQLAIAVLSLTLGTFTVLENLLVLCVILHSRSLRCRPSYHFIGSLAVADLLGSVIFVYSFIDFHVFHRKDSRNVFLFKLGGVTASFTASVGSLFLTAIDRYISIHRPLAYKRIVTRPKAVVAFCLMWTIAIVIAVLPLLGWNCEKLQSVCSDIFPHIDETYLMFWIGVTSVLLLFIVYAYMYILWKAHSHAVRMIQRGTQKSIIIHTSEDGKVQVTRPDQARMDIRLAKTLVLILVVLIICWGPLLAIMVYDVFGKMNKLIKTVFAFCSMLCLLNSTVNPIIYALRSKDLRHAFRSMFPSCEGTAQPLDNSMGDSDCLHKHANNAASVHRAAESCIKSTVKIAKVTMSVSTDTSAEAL
# Sequence of CYP2C9 (P11712 whole entry): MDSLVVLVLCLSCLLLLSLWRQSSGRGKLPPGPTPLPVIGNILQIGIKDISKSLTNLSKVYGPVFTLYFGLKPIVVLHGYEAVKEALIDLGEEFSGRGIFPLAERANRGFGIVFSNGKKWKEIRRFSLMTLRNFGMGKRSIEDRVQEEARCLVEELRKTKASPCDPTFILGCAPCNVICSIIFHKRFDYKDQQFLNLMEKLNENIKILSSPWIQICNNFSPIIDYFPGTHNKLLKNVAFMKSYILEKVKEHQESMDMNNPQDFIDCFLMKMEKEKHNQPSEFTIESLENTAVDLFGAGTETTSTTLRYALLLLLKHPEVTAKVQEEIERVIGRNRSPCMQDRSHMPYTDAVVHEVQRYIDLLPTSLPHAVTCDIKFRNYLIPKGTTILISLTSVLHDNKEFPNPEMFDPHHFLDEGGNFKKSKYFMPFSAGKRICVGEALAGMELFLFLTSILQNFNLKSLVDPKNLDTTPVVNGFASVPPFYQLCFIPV
# T1 sequence (Q8NER1 whole entry): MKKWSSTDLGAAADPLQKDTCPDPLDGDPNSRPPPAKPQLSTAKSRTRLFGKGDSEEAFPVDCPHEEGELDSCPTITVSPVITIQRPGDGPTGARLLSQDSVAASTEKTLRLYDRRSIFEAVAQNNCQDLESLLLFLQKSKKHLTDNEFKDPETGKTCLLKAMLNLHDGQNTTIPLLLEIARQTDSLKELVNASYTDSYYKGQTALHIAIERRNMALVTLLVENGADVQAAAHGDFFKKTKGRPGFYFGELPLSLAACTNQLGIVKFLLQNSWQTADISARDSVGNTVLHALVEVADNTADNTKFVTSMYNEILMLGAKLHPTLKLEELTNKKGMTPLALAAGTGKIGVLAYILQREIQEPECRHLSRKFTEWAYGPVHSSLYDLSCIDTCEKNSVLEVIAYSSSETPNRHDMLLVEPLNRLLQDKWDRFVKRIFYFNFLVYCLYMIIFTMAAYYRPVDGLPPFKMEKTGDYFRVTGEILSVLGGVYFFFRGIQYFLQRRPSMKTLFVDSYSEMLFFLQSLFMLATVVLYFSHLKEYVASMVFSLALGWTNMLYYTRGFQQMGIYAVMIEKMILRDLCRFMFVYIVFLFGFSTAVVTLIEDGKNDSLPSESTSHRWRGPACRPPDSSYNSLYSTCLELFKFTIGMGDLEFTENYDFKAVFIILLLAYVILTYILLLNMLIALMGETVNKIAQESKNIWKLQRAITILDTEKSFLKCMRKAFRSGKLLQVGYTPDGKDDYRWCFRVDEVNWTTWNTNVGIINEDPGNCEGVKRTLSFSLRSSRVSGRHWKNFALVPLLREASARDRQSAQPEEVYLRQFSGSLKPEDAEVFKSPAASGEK
# Sequence of hERG potassium channel (Q12809 whole entry): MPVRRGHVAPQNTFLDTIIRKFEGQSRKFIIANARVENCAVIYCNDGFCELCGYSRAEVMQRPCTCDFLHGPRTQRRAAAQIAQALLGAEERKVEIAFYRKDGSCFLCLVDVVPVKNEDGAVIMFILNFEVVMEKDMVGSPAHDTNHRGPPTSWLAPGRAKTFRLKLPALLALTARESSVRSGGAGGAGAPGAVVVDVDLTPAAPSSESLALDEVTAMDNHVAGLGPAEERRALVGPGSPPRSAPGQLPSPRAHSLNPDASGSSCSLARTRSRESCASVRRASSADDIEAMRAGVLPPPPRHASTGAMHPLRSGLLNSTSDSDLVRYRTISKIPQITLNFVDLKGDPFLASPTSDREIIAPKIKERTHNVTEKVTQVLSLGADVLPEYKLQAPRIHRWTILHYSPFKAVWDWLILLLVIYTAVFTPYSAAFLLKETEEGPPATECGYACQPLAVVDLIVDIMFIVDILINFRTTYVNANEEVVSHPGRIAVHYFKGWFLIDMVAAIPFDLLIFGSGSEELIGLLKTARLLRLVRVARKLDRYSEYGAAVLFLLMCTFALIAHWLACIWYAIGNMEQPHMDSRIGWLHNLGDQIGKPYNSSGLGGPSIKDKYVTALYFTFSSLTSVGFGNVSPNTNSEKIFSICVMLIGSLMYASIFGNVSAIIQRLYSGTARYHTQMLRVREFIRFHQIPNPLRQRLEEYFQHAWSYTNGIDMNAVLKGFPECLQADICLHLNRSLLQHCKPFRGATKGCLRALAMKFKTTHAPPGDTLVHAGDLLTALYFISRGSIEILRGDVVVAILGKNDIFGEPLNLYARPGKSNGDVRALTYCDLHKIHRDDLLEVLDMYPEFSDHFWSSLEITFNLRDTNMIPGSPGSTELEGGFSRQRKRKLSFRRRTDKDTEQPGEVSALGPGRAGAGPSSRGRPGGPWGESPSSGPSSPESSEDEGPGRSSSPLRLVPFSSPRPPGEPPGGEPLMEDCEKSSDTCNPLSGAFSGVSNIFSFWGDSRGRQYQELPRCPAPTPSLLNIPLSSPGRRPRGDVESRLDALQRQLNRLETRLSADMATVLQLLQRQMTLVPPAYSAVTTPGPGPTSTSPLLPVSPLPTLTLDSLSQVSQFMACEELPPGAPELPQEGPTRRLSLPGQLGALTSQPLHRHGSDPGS
compound,measurement,setting,value
"CC(C(=O)NCc1ccccc1)N1C(=O)CCC1=O (stereo not drawn) [AS-1, N-benzyl-2-(2,5-dioxopyrrolidin-1-yl)propanamide]",ED50,"[1]; Mus musculus, drug alone i.p. 30 min before s.c. PTZ 100 mg/kg, ± SEM, read-out: ED50 against PTZ-induced clonic seizures",81.1 ± 10.4 mg/kg
same,ED50,[2],75.4 mg/kg
same,effect on kindling development (mean seizure severity score),[3],significantly suppressed kindling development
same,effect on spontaneous locomotor activity,[4],did not affect locomotor activity
same,effect on percentage of open arm entries and percentage of time spent in open arms,[5],did not produce any significant changes
same,effect on seizure threshold for the first myoclonic twitch,"[6]; repeated i.p. injection of 60 mg/kg, 48 h after last PTZ, vs non-kindled control",significantly increased the seizure threshold
same,effect on threshold for forelimb tonus,[6]; [35],No changes
same,effect on threshold for generalized clonus,[6]; [35],No changes
same,effect on threshold for generalized clonus,[7]; [36],did not affect significantly
same,effect on threshold for the first myoclonic twitch,[7]; [36],did not affect significantly
same,effect on threshold for generalized clonic seizure,[7]; [37],raised the thresholds
same,effect on threshold for the first myoclonic twitch,[7]; [37],raised the thresholds
same,effect on susceptibility to PTZ-induced forelimb extension (forelimb tonus threshold),[7]; 15–60 mg/kg i.p.,did not affect
same,"Retention time, median (25th; 75th percentiles)",[8],180 (146; 180) s
same,"Muscular strength, mean grip strength ± SEM",[9],99.9 ± 2.2 g
same,"Motor coordination, percentage of animals showing motor coordination impairment",[10],0%
same,% inhibition of control-specific binding,[11],10.2 (100) %
same,% inhibition of control-specific binding,[12],2.4 (100) %
same,inhibition at 100 µM,[13],4.3%
same,inhibition at 100 µM,[14],5.6%
same,maximal amplitude of sodium currents normalized to control (1.0 in control),[15],0.93 ± 0.06
same,Papp,[16],9.8 ± 2 ×10⁻⁶ cm/s
same,Phase I metabolism in human (metabolites by UPLC),[17],no presence of metabolites; also recorded: No metabolites found
same,HepG2 viability,"[18]; 100 μM, 72 h incubation, ± SD",82.3 ± 6.5^a Percentage of control
same,effect on HepG2 cells' viability,"[18]; only at the highest concentration used of 100 μM, 72 h, p < 0.05",slight but statistically significant effect
same,"ED50 (6 Hz, 32 mA)",[19],24.66 mg/kg
same,effect on CYP3A4 activity,[20],No significant effect
same,effect on CYP2D6 activity,[21],No significant effect
same,CYP2D6 activity,"[21]; human, 10 μM",104.4 ± 0.5^a Percentage of control
same,CYP2C9 activity,[22],67.0 ± 3.6^a Percentage of control
same,% inhibition of control-specific binding,[23]; 100 μM,15.9%
same,% inhibition of control-specific binding,[23]; 500 μM,56.0%
same,% inhibition of control-specific binding,[24]; 100 μM,15.0%
same,% inhibition of control-specific binding,[24]; 500 μM,45.0%
same,% inhibition of control-specific binding,[25],0.2 (100) %
same,% inhibition of control-specific binding,[26]; 100 μM,15.0%
same,% inhibition of control-specific binding,[26]; 200 μM,35.0%
same,effect on HepG2 cells,[27],"weak, statistically significant toxic effect"
same,inhibition at 100 µM,[28],0.8%
same,effect on number of epileptiform discharges during 20 min,[29],significantly reduced
"N#CC(C#N)=NNc1cccc(Cl)c1 [CCCP, carbonyl cyanide 3-chlorophenylhydrazone, reference compound]",HepG2 cells' viability,[18]; 10 μM,~ 40 % of control
"COc1cccc2c1C(=O)c1c(O)c3c(c(O)c1C2=O)C[C@@](O)(C(=O)CO)C[C@@H]3O[C@H]1C[C@H](N)[C@H](O)[C@H](C)O1 [DX, doxorubicin, reference compound]",HepG2 cells' viability,[18]; 1 μM,~ 40 % of control
"CCC1(C)CC(=O)NC1=O (stereo not drawn) [ETX, ethosuximide]",anticonvulsant activity in scPTZ,"[30]; known AED profile, Fig. 1",active
"CC(C(=O)N1CCN(c2cccc(C(F)(F)F)c2)CC1)N1C(=O)CCC1=O (stereo not drawn) [KA-11, 1-(1-oxo-1-(4-(3-(trifluoromethyl)phenyl)piperazin-1-yl)propan-2-yl)pyrrolidine-2,5-dione]",effect on depressive-like behavior caused by PTZ-induced kindling,[31],prevented the depressive-like behavior
"COC[C@@H](NC(C)=O)C(=O)NCc1ccccc1 [LCS, lacosamide, reference compound]",anticonvulsant activity in MES,[32],active
same,"anticonvulsant activity in 6 Hz, 32 mA",[19],active
"CC[C@@H](C(N)=O)N1CCCC1=O [LEV, levetiracetam]","anticonvulsant activity in 6 Hz, 32 mA",[19],active
same,ED50 at 44 mA versus ED50 at 32 mA stimulus intensity,[33],at least 50 times
"CCCC(CCC)C(=O)O [VPA, valproic acid, reference compound]",protection against PTZ-induced clonic seizures,[1]; 125 mg/kg i.p.,12.5%
same,protection against PTZ-induced clonic seizures,[1]; 150 mg/kg i.p.,37.5%
same,protection against PTZ-induced clonic seizures,[1]; 200 mg/kg i.p.,62.5%
same,effect on kindling development (mean seizure severity score),[3],suppressed kindling progression
same,effect on spontaneous locomotor activity,[4],did not affect locomotor activity
same,effect on percentage of open arm entries and percentage of time spent in open arms,[5],did not produce any significant changes
same,effect on total immobility duration,[34],significantly decreased the immobility time
same,"Retention time, median (25th; 75th percentiles)",[8],180 (180; 180) s
same,"Muscular strength, mean grip strength ± SEM",[9],104.7 ± 2.8 g
same,"Motor coordination, percentage of animals showing motor coordination impairment",[10],12.5%
same,ED50 (s.c. PTZ),"[30]; earlier study, ref [10], [12]",239.45 mg/kg
same,"ED50 (6 Hz, 32 mA)",[19],130.65 mg/kg
